Among the data in patent publication US11254680B2, “Cyclic iminopyrimidine derivatives as kinase inhibitors” (ABM Therapeutics Corporation, priority 2017, dated 2022) are GI50 values, retold here.

The structures appear in SMILES notation.

Broadly, the GI50 is the concentration that inhibits growth by half. A low value points to more potent growth inhibition.

The experiment deals with A375 melanoma cells. The experiment in a line: Antiproliferation assay in A375 cell line by CellTiter Glo. It is filed as cell-based. The conditions noted are these: Homo sapiens, A-375, 72 hours or 144 hours. Here is the method: In vitro anti-proliferation study of test compounds in A375 cell line by CellTiter Glo. The cells were routinely maintained as a monolayer culture in corresponding culture medium, at 37° C. with 5% CO2 in air.
Harvest the exponential growth cells by trypsin-EDTA digestion. Re-suspend the cell pellet in fresh culture medium, and adjust the concentration to needed (the cell density per well was listed in following form). The cell viability is over 98% by Trypan blue staining. Inoculate cells into 96 wells plates according to the plate map (90 μL/well). Incubate the plates at 37° C. and 5% CO2 overnight. The next day, prepare the 10×compound containing medium according to the plate map. Transfer 10 μL of 10×compound containing medium into each well of the assay plates (the final DMSO concentration is 0.5%). Gently mix the medium and incubate at 37° C. and 5% CO2 for another 72 hours or 144 hours.
Prepare the reagent according to the manufacture's instruction. Add 50 μL CellTiter-Glo Reagent in each well. Mix contents for 2 minutes on an orbital shaker to induce cell lysis. Allow the plate to incubate at room temperature for 10 minutes to stabilize luminescent signal. Transfer 100 μL of reaction contents of each well from the clear plates into white walled/white opaque 96-well plates. Record the luminescence on Envision.
Using the luminescence measurements [time zero (T0), control growth (C), and test growth in the presence of drug at the six concentration levels (Ti)], the percentage growth is calculated at each of the drug concentrations levels.
Percentage growth inhibition (GI) is calculated as: GI (%)═[(Ti-T0)/(C-T0)]×100 for concentrations for which Ti>=T0, and GI (%)═[(Ti-T0)/T0]×100 for concentrations for which Ti<T0. Data were analyzed using the XLFit (Excel) tool, fitting to a 4-parameter equation to generate concentration response curves. Concentration of compound that inhibits 50% of control cell growth (GI50) was back-interpolated when y=50% of net growth of DMSO treated control wells using nonlinear regression with the equation: f(x) 205 [fit=(A+((B−A)/(1+((C/x)^))))], where A is the minimum response (Ymin), B is the maximum response (Ymax), C is the inflection point of the curve (Re GI50) and D is the Hill coefficient. Growth inhibition of 50% (GI50) was calculated at the 50% Growth inhibition on the curve. Index values were the sum of Inhibition rate (IR) at each tested compound concentration.
For `CCCS(=O)(=O)Nc1ccnc(Oc2ccc3c(c2)C2=NCCCN2C=N3)c1[N+](=O)[O-]` [Compound 22, N-(2-((3,4-Dihydro-2H-pyrimido[1,2-c]quinazolin-10-yl)oxy)-3-nitropyridin-4-yl)propane-1-sulfonamide], the GI50 was greater than 1 µM.

For the compound `CCCS(=O)(=O)Nc1cc(Oc2ccc3c(c2)C2=NCCN2C=N3)ccc1F` [Compound 51, N-(5-((2,3-Dihydroimidazo[1,2-c]quinazolin-9-yl)oxy)-2-fluorophenyl)propane-1-sulfonamide], the GI50 is greater than 1 µM. `CCCS(=O)(=O)Nc1cccc(Nc2cc3c(cn2)N=CN2CCCN=C32)c1C#N` [Compound 43, N-(2-Cyano-3-((3,4-dihydro-2H-pyrido[4,3-e]pyrimido[1,2-c]pyrimidin-10-yl)amino)phenyl)propane-1-sulfonamide] had a GI50 of 0.1 to 1 µM. With `CCCS(=O)(=O)Nc1ccnc(Oc2ccc3c(c2)C2=NCCCN2C=N3)c1C#N` [Compound 25, N-(3-Cyano-2-((3,4-dihydro-2H-pyrimido[1,2-c]quinazolin-10-yl)oxy)pyridin-4-yl)propane-1-sulfonamide], the 50% growth inhibitory concentration (GI50) was greater than 1 µM. To `CC1(C)CN2C=Nc3ccc(Oc4cccc(NS(=O)(=O)N5CC[C@@H](F)C5)c4Cl)cc3C2=N1` [Compound 53, (R)—N-(2-Chloro-3-((2,2-dimethyl-2,3-dihydroimidazo[1,2-c]quinazolin-9-yl)oxy)phenyl)-3-fluoropyrrolidine-1-sulfonamide] belongs less than 0.1 µM. Next, `CCCS(=O)(=O)Nc1ccc(N)c(Oc2ccc3c(c2)C2=NCCN2C=N3)c1F` [Compound 8, N-(4-Amino-3-((2,3-dihydroimidazo[1,2-c]quinazolin-9-yl)oxy)-2-fluorophenyl)propane-1-sulfonamide]: greater than 1 µM; `CCCS(=O)(=O)Nc1ccc(F)c(Oc2ccc3c(c2)C2=NCCN2C=N3)c1F` [Compound 10, N-(3-((2,3-Dihydroimidazo[1,2-c]quinazolin-9-yl)oxy)-2,4-difluorophenyl)propane-1-sulfonamide]: greater than 1 µM; `CCCS(=O)(=O)Nc1cccc(N(C)c2cc3c(cn2)N=CN2CCCN=C32)c1C#N` [Compound 42, N-(2-Cyano-3-((3,4-dihydro-2H-pyrido[4,3-e]pyrimido[1,2-c]pyrimidin-10-yl)(methyl)amino)phenyl)propane-1-sulfonamide]: greater than 1 µM. As for `CC(C)S(=O)(=O)Nc1cccc(Oc2ccc3c(c2)C2=NCCN2C=N3)c1Cl` [Compound 44, N-(2-Chloro-3-((2,3-dihydroimidazo[1,2-c]quinazolin-9-yl)oxy)phenyl)propane-2-sulfonamide], the GI50 was less than 0.1 µM. On to `O=S(=O)(CCCO)Nc1cccc(Oc2ccc3c(c2)C2=NCCCN2C=N3)c1Cl` [Compound 39, N-(2-Chloro-3-((3,4-dihydro-2H-pyrimido[1,2-c]quinazolin-10-yl)oxy)phenyl)-3-hydroxypropane-1-sulfonamide], for which the GI50 was in the range of 0.1 to 1 µM.

For the compound `O=S(=O)(Nc1cccc(Oc2ccc3c(c2)C2=NCCN2C=N3)c1Cl)N1CCCC1` [Compound 48, N-(2-Chloro-3-((2,3-dihydroimidazo[1,2-c]quinazolin-9-yl)oxy)phenyl)pyrrolidine-1-sulfonamide], the GI50 is less than 0.1 µM. To `CCCS(=O)(=O)Nc1cccc(Oc2ccc3c(c2)C2=NC(C)(C)CN2C=N3)c1Cl` [Compound 55, N-(2-Chloro-3-((2,2-dimethyl-2,3-dihydroimidazo[1,2-c]quinazolin-9-yl)oxy)phenyl)propane-1-sulfonamide] belongs less than 0.1 µM; to `CCCS(=O)(=O)Nc1cccc(Oc2ccc3c(c2)C2=NCCCCN2C=N3)c1C#N` [Compound 28, N-(2-Cyano-3-((2,3,4,5-tetrahydro-[1,3]diazepino[1,2-c]quinazolin-11-yl)oxy)phenyl)propane-1-sulfonamide], greater than 1 µM; to `CCN(C)S(=O)(=O)Nc1cccc(Oc2ccc3c(c2)C2=NCCN2C=N3)c1Cl` [Compound 45, N-(2-Chloro-3-((2,3-dihydroimidazo[1,2-c]quinazolin-9-yl)oxy)phenyl)-N-ethyl-N-methylamino-1-sulfonamide], greater than 1 µM. To `CCCS(=O)(=O)Nc1cccc(Oc2ccc3c(c2)C2=NCCN2C=N3)c1N` [Compound 13, N-(2-Amino-3-((2,3-dihydroimidazo[1,2-c]quinazolin-9-yl)oxy)phenyl)propane-1-sulfonamide] belongs greater than 1 µM; to `CN(CCF)S(=O)(=O)Nc1cccc(Oc2ccc3c(c2)C2=NCCN2C=N3)c1Cl` [Compound 47, N-(2-Chloro-3-((2,3-dihydroimidazo[1,2-c]quinazolin-9-yl)oxy)phenyl)-(2-fluoroethyl)(methyl)amino-1-sulfonamide], less than 0.1 µM. To `O=S(=O)(CCCF)Nc1cccc(Oc2ccc3c(c2)C2=NCCCN2C=N3)c1Cl` [Compound 38, N-(2-Chloro-3-((3,4-dihydro-2H-pyrimido[1,2-c]quinazolin-10-yl)oxy)phenyl)-3-fluoropropane-1-sulfonamide] belongs less than 0.1 µM.

For `CCN(C)S(=O)(=O)Nc1cccc(Oc2ccc3c(c2)C2=NCCCN2C=N3)c1Cl` [Compound 41, N-(2-Chloro-3-((3,4-dihydro-2H-pyrimido[1,2-c]quinazolin-10-yl)oxy)phenyl)-N-ethyl-N-methylamino-1-sulfonamide], the 50% growth inhibitory concentration (GI50) is less than 0.1 µM. To `CC1(C)CN2C=Nc3ccc(Oc4cccc(NS(=O)(=O)N5CCCC5)c4Cl)cc3C2=N1` [Compound 54, N-(2-Chloro-3-((2,2-dimethyl-2,3-dihydroimidazo[1,2-c]quinazolin-9-yl)oxy)phenyl)pyrrolidine-1-sulfonamide] belongs less than 0.1 µM; to `O=S(=O)(Nc1cc(Oc2ccc3c(c2)C2=NCCN2C=N3)ccc1F)N1CCCC1` [Compound 49, N-(5-((2,3-Dihydroimidazo[1,2-c]quinazolin-9-yl)oxy)-2-fluorophenyl)pyrrolidine-1-sulfonamide], greater than 1 µM; to `CCCS(=O)(=O)Nc1ccc([N+](=O)[O-])c(Oc2ccc3c(c2)C2=NCCN2C=N3)c1F` [Compound 7, N-(3-((2,3-Dihydroimidazo[1,2-c]quinazolin-9-yl)oxy)-2-fluoro-4-nitrophenyl)propane-1-sulfonamide], greater than 1 µM. Next, `CCCS(=O)(=O)Nc1c(F)cc(F)c(Oc2ccc3c(c2)C2=NCCN2C=N3)c1C#N` [Compound 4, N-(2-Cyano-3-((2,3-dihydroimidazo[1,2-c]quinazolin-9-yl)oxy)-4,6-difluorophenyl)propane-1-sulfonamide]: 0.1 to 1 µM; `CCCS(=O)(=O)Nc1cccc(Oc2cc3c(cn2)N=CN2CCCN=C32)c1C#N` [Compound 27, N-(2-Cyano-3-((3,4-dihydro-2H-pyrido[4,3-e]pyrimido[1,2-c]pyrimidin-10-yl)oxy)phenyl)propane-1-sulfonamide]: 0.1 to 1 µM; `CCCS(=O)(=O)Nc1c(N)ccc(Oc2ccc3c(c2)C2=NCCCN2C=N3)c1F` [Compound 20, N-(6-Amino-3-((3,4-dihydro-2H-pyrimido[1,2-c]quinazolin-10-yl)oxy)-2-fluorophenyl)propane-1-sulfonamide]: greater than 1 µM.

Turning to `O=S(=O)(Nc1cccc(Oc2ccc3c(c2)C2=NCCCN2C=N3)c1Cl)N1CC[C@@H](F)C1` [Compound 40, (R)—N-(2-Chloro-3-((3,4-dihydro-2H-pyrimido[1,2-c]quinazolin-10-yl)oxy)phenyl)-3-fluoropyrrolidine-1-sulfonamide], the GI50 is less than 0.1 µM. For the compound `CCCS(=O)(=O)Nc1c([N+](=O)[O-])ccc(Oc2ccc3c(c2)C2=NCCCN2C=N3)c1F` [Compound 19, N-(3-((3,4-Dihydro-2H-pyrimido[1,2-c]quinazolin-10-yl)oxy)-2-fluoro-6-nitrophenyl)propane-1-sulfonamide], the GI50 was greater than 1 µM. In turn, `CCCS(=O)(=O)Nc1nccc(Oc2ccc3c(c2)C2=NCCCN2C=N3)c1C#N` [Compound 24, N-(3-Cyano-4-((3,4-dihydro-2H-pyrimido[1,2-c]quinazolin-10-yl)oxy)pyridin-2-yl)propane-1-sulfonamide] displayed a GI50 greater than 1 µM.
